Values joined by “and” are separate entries in the source; they are usually repeats but may differ in a detail not shown here. Identical values can stand only once. Toxic doses and inconclusive results are not listed. How the source made its calls: active means survival T/C of 150% or more; inactive means T/C below 125% in these data. Square brackets hold non-standard residues; d marks the D form. Peptide text beside a SMILES is read from it. pGlu = O=C1CC[CH](C(=O)O)N1
Test system: P388 leukemia ip, CD2F1 mice, survival T/C
Test: NCI In Vivo Anticancer Drug Screen. Data for tumor model P388 Leukemia (intraperitoneal) in CD2F1 (CDF1) mice
Settings: endpoint: median survival time, higher = longer survival
How it was run: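 Mice carrying the transplanted tumor received test compound or vehicle. Survival was recorded in each group, and the value is the treated-group measurement divided by that of the vehicle-treated control group.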

[1] = dose: 60.0 mg/kg/injection, schedule: Q01DX005 (ip), vehicle: saline with Tween-80
[2] = dose: 120.0 mg/kg/injection, schedule: Q01DX005 (ip), vehicle: saline with Tween-80
[3] = dose: 240.0 mg/kg/injection, schedule: Q01DX005 (ip), vehicle: saline with Tween-80
[4] = dose: 50.0 mg/kg/injection, schedule: Q01DX005 (ip), vehicle: Klucel (hydroxypropylcellulose) (HPC)
[5] = dose: 100.0 mg/kg/injection, schedule: Q01DX005 (ip), vehicle: Klucel (hydroxypropylcellulose) (HPC)
[6] = dose: 200.0 mg/kg/injection, schedule: Q01DX005 (ip), vehicle: Klucel (hydroxypropylcellulose) (HPC)
[7] = dose: 50.0 mg/kg/injection, schedule: Q01DX009 (ip), vehicle: saline with Tween-80
[8] = dose: 100.0 mg/kg/injection, schedule: Q01DX009 (ip), vehicle: saline with Tween-80
[9] = dose: 200.0 mg/kg/injection, schedule: Q01DX009 (ip), vehicle: saline with Tween-80
[10] = dose: 50.0 mg/kg/injection, schedule: Q01DX009 (ip), vehicle: saline
[11] = dose: 100.0 mg/kg/injection, schedule: Q01DX009 (ip), vehicle: saline
[12] = dose: 200.0 mg/kg/injection, schedule: Q01DX009 (ip), vehicle: saline
[13] = dose: 400.0 mg/kg/injection, schedule: Q01DX009 (ip), vehicle: saline with Tween-80
[14] = dose: 25.0 mg/kg/injection, schedule: Q01DX009 (ip), vehicle: saline with Tween-80
[15] = dose: 50.0 mg/kg/injection, schedule: Q01DX009 (ip), vehicle: Klucel (hydroxypropylcellulose) (HPC)
[16] = dose: 100.0 mg/kg/injection, schedule: Q01DX009 (ip), vehicle: Klucel (hydroxypropylcellulose) (HPC)

Measured: T/C

CC1(C)CCCC12CCN1CCC([N+](=O)[O-])C12 (centres undefined)
inactive: dose: 11.5 mg/kg/injection, schedule: Q04DX003 (ip), vehicle: saline with Tween-80 100 % of control | dose: 23.0 mg/kg/injection, schedule: Q04DX003 (ip), vehicle: saline with Tween-80 108 % of control | dose: 46.0 mg/kg/injection, schedule: Q04DX003 (ip), vehicle: saline with Tween-80 100 % of control | dose: 92.0 mg/kg/injection, schedule: Q04DX003 (ip), vehicle: saline with Tween-80 108 % of control

COC(SC)(SC)c1cc(-c2c(Cl)cccc2Cl)no1
inactive: [1] 101 % of control | [2] 101 % of control | [3] 103 % of control

O=C(Cl)CCc1cc(Cl)no1
inactive: dose: 3.13 mg/kg/injection, schedule: Q04DX003 (ip), vehicle: other 109 % of control | dose: 6.25 mg/kg/injection, schedule: Q04DX003 (ip), vehicle: other 97 % of control | dose: 12.5 mg/kg/injection, schedule: Q04DX003 (ip), vehicle: other 100 % of control | dose: 25.0 mg/kg/injection, schedule: Q04DX003 (ip), vehicle: other 103 % of control | dose: 50.0 mg/kg/injection, schedule: Q04DX003 (ip), vehicle: other 107 % of control | dose: 100.0 mg/kg/injection, schedule: Q04DX003 (ip), vehicle: other 107 % of control | dose: 200.0 mg/kg/injection, schedule: Q04DX003 (ip), vehicle: other 100 % of control

Cc1c[nH]c2nc(C)n(-c3ccccc3F)c(=N)c12
inactive: [4] 99 % of control | [5] 91 % of control

CC[n+]1ccc(Nc2ccc(/C=C/c3ccc4cc(Nc5cc[n+](CC)cc5)ccc4[n+]3CC)cc2)cc1
inactive: dose: 3.3 mg/kg/injection, schedule: Q04DX003 (ip), vehicle: saline sonified 113 % of control

O=C(Nn1c(=S)[nH]c2ccccc2c1=O)c1ccc([N+](=O)[O-])cc1
inactive: dose: 60.0 mg/kg/injection, schedule: Q01DX005 (ip), vehicle: Klucel + Tween-80 93 % of control | dose: 120.0 mg/kg/injection, schedule: Q01DX005 (ip), vehicle: Klucel + Tween-80 87 % of control

COc1ccc(COC(=O)Sc2nc(C)cc(C)n2)cc1
inactive: [4] 101 % of control | [5] 100 % of control | [6] 102 % of control

Fc1cc(F)c(F)c(OCC2CO2)c1F (centres undefined)
inactive: [7] 100 % of control | [8] 94 % of control | [9] 101 % of control

NC(=S)c1ccccc1N=Cc1ccccn1
inactive: dose: 100.0 mg/kg/injection, schedule: Q04DX003 (ip), vehicle: Klucel (hydroxypropylcellulose) (HPC) 100 % of control | dose: 200.0 mg/kg/injection, schedule: Q04DX003 (ip), vehicle: Klucel (hydroxypropylcellulose) (HPC) 107 % of control

COCC1(C)CCCC2(C)C1CCC1(O)CCCCC12O (centres undefined)
inactive: dose: 100.0 mg/kg/injection, schedule: Q01DX001 (ip), vehicle: saline 100 % of control | dose: 200.0 mg/kg/injection, schedule: Q01DX001 (ip), vehicle: saline 100 % of control | dose: 400.0 mg/kg/injection, schedule: Q01DX001 (ip), vehicle: saline 108 % of control

CN1CCN(c2ccncc2S(=O)(=O)N2CCN(C)CC2)CC1
inactive: [10] 97 % of control | [11] 97 % of control | [12] 87 % of control

O=C(O)c1c[nH]c2cc(OCc3ccc(F)cc3)ccc2c1=O
inactive: dose: 100.0 mg/kg/injection, schedule: Q04DX003 (ip), vehicle: saline 88 % of control | dose: 200.0 mg/kg/injection, schedule: Q04DX003 (ip), vehicle: saline 93 % of control | dose: 400.0 mg/kg/injection, schedule: Q04DX003 (ip), vehicle: saline 90 % of control

C[Si](C)(CCCOCC1CO1)O[Si](C)(C)CCCOCC1CO1 (centres undefined)
inactive: [8] 100 % of control | [9] 101 % of control | [13] 114 % of control

O=C(CC(O)(C(F)(F)F)C(F)(F)F)c1cc(CC(=O)C(O)(C(F)(F)F)C(F)(F)F)cc(CC(=O)C(O)(C(F)(F)F)C(F)(F)F)c1
inactive: [14] 97 % of control | [7] 103 % of control | [8] 100 % of control | [9] 105 % of control | [13] 115 % of control

COc1cc(Cc2n[nH]c(=S)n2-c2ccccc2)c(S(N)(=O)=O)cc1OC
inactive: [1] 102 % of control | [2] 95 % of control | [3] 94 % of control

O=C(CNC(=O)Nc1ccc(Cl)c(Cl)c1)N/N=C/c1ccccc1F
inactive: dose: 3.75 mg/kg/injection, schedule: Q01DX005 (ip), vehicle: saline with Tween-80 104 % of control | dose: 7.5 mg/kg/injection, schedule: Q01DX005 (ip), vehicle: saline with Tween-80 102 % of control | dose: 15.0 mg/kg/injection, schedule: Q01DX005 (ip), vehicle: saline with Tween-80 102 % of control and 93 % of control | [1] 95 % of control

CS(=O)(=O)N1C=Cc2ccccc2C=C1
inactive: dose: 100.0 mg/kg/injection, schedule: Q04DX002 (ip), vehicle: saline with Tween-80 99 % of control | dose: 200.0 mg/kg/injection, schedule: Q04DX002 (ip), vehicle: saline with Tween-80 90 % of control | dose: 400.0 mg/kg/injection, schedule: Q04DX002 (ip), vehicle: saline with Tween-80 99 % of control

[Br][Sn]([Br])([S]c1ccccn1)[S]c1ccccn1
inactive: dose: 12.5 mg/kg/injection, schedule: Q01DX009 (ip), vehicle: saline with Tween-80 111 % of control | [14] 103 % of control | [7] 100 % of control and 95 % of control | [9] 89 % of control

OCC1OC([Se])C(O)C(O)C1O.[CH3][Sb][CH3] (centres undefined)
inactive: [1] 112 % of control | [2] 104 % of control

Cc1cccc2c(=O)n(C(=O)c3ccccc3)c(N)nc12
inactive: dose: 25.0 mg/kg/injection, schedule: Q01DX001 (ip), vehicle: saline with Tween-80 88 % of control | dose: 50.0 mg/kg/injection, schedule: Q01DX001 (ip), vehicle: saline with Tween-80 90 % of control | dose: 100.0 mg/kg/injection, schedule: Q01DX001 (ip), vehicle: saline with Tween-80 89 % of control | dose: 200.0 mg/kg/injection, schedule: Q01DX001 (ip), vehicle: saline with Tween-80 93 % of control

CC(=O)N[C@H]1CCC2[C@@H]3CCC4=CC(=O)NCC[C@]4(C)C3CC[C@@]21C (some centres undefined)
inactive: [1] 95 % of control | [2] 92 % of control | [3] 94 % of control

CC(=O)c1ccc2c(=O)n3c4ccccc4nc3c3cccc1c23
inactive: [7] 118 % of control | [8] 104 % of control

O=C1C2CC3OC3CC2C(=O)N1CN1C(=O)C2CC3OC3CC2C1=O (centres undefined)
inactive: [4] 106 % of control | [5] 91 % of control | [6] 89 % of control

OCC1COC(c2ccccc2)=N1 (centres undefined)
inactive: [4] 100 % of control | [5] 99 % of control | [6] 100 % of control

CCOC(=O)CCC(NC(=O)C1CCC(=O)N1)C(=O)OCC (centres undefined) ([pGlu]-Glu(OEt)-OEt; configuration not given here)
inactive: dose: 50.0 mg/kg/injection, schedule: Q01DX005 (ip), vehicle: saline with Tween-80 96 % of control | dose: 100.0 mg/kg/injection, schedule: Q01DX005 (ip), vehicle: saline with Tween-80 91 % of control | dose: 200.0 mg/kg/injection, schedule: Q01DX005 (ip), vehicle: saline with Tween-80 98 % of control

Oc1ccc(C(c2cc3c(cc2O)OCO3)N2CCNCC2)cc1 (centres undefined)
inactive: [1] 114 % of control | [2] 115 % of control | [3] 113 % of control

CCc1ccccc1NC(=O)NCC(C)C
inactive: [15] 105 % of control | [16] 97 % of control | dose: 200.0 mg/kg/injection, schedule: Q01DX009 (ip), vehicle: Klucel (hydroxypropylcellulose) (HPC) 105 % of control

COc1cccc(OC)c1OCCBr
inactive: [7] 103 % of control | [8] 98 % of control | [9] 100 % of control

C/C(C(=O)c1ccccc1)=C1/NC(C)(C)CO1
inactive: [1] 101 % of control | [2] 103 % of control | [3] 101 % of control

NC(=O)c1cc(Br)ccc1[N+](=O)[O-]
inactive: [10] 97 % of control | [11] 97 % of control | [12] 87 % of control

CNC(=O)N=Nc1ccccc1
inactive: dose: 50.0 mg/kg/injection, schedule: Q01DX005 (ip), vehicle: saline + Tween-80 + alcohol 100 % of control | dose: 100.0 mg/kg/injection, schedule: Q01DX005 (ip), vehicle: saline + Tween-80 + alcohol 100 % of control | dose: 200.0 mg/kg/injection, schedule: Q01DX005 (ip), vehicle: saline + Tween-80 + alcohol 100 % of control

Cc1[nH]c2c(-c3ccccc3)c3cc(Cl)ccc3nc2c1C(=O)O
inactive: dose: 25.0 mg/kg/injection, schedule: Q01DX009 (ip), vehicle: Klucel (hydroxypropylcellulose) (HPC) 92 % of control | [15] 89 % of control | [16] 86 % of control

Reference: PubChem BioAssay AID330 (DTP/NCI, 2004)
